{
  "source": "patent US20100255530A1",
  "about": "“BACTERIA DETECTION AND/OR IDENTIFICATION MEDIUM” (BIOMERIEUX, priority 2007, published 2010)",
  "tested_on": "Citrobacter freundii 009",
  "test": "Impact of cellobiose on colony coloration, Citrobacter freundii 009",
  "type": "cell-based",
  "details": "cellobiose 0.5 g/l in medium combining the glucuronide and galactoside substrates",
  "from_the_text": "The coloration of these colonies is noted.",
  "data": [
    {"smiles": "O=C[C@H](O)[C@@H](O)[C@H](O[C@@H]1O[C@H](CO)[C@@H](O)[C@H](O)[C@H]1O)[C@H](O)CO", "note": "[cellobiose]", "values": [
      {"measurement": "distinction of the Citrobacter 009 strain from the E. coli strains", "result": "makes it possible to distinguish the Citrobacter 009 strain more clearly from the E. coli strains"}
    ]}
  ]
}
